Data: the supplement of paper PMC13207355

What was measured:
Conditions in all cases: exposure time: 72 h
[1] = tested on: E13 (patient-derived glioblastoma stem cells of classical subtype); assay: surviving fraction (nuclei count normalised to DMSO); higher = more cells surviving (less toxic)
[2] = tested on: E21 (patient-derived glioblastoma stem cells of mesenchymal subtype); assay: as above
[3] = tested on: E28 (patient-derived glioblastoma stem cells of classical subtype); assay: as above
[4] = tested on: E31 (patient-derived glioblastoma stem cells of proneural subtype); assay: as above
[5] = tested on: E34 (patient-derived glioblastoma stem cells of proneural subtype); assay: as above
[6] = tested on: E57 (patient-derived glioblastoma stem cells of mesenchymal subtype); assay: as above
[7] = tested on: FT3469 (normal neural stem cell line); assay: as above
[8] = tested on: E13; assay: phenotypic distance (Euclidean, principal components) from DMSO controls (arbitrary units); higher = stronger morphological change
[9] = tested on: E21; assay: as above
[10] = tested on: E28; assay: as above
[11] = tested on: E31; assay: as above
[12] = tested on: E34; assay: as above
[13] = tested on: E57; assay: as above
[14] = tested on: FT3469; assay: as above
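Wherever phenotypic distance (Euclidean, principal components) from DMSO controls is given: cell Painting imaging in 384-well plates, CellProfiler features reduced to at least 20 principal components, Euclidean distance versus same-plate DMSO vehicle wells (0.1% v/v), median over six images per well.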
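Wherever surviving fraction (nuclei count normalised to DMSO) is given: nuclei counted by high-content imaging of Hoechst-stained cells in laminin-coated 384-well plates, relative to 0.1% DMSO vehicle wells, with staurosporine as cell-death control.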

COc1cc2ncnc(Nc3cccc(Br)c3)c2cc1OC
Conditions	phenotypic distance	surviving fraction
[1], 4.1 nM	–	0.967
[1], 12.3 nM	–	1.02
[1], 37 nM	–	0.972
[1], 111.1 nM	–	0.952
[1], 333.3 nM	–	1.14
[1], 1000 nM	–	1.04
[1], 3000 nM	–	0.903
[2], 4.1 nM	–	1.02
[2], 12.3 nM	–	0.921
[2], 37 nM	–	0.943
[2], 111.1 nM	–	0.867
[2], 333.3 nM	–	1.06
[2], 1000 nM	–	0.88
[2], 3000 nM	–	0.346
[3], 4.1 nM	–	1.07
[3], 12.3 nM	–	0.99
[3], 37 nM	–	0.899
[3], 111.1 nM	–	0.898
[3], 333.3 nM	–	0.963
[3], 1000 nM	–	0.944
[3], 3000 nM	–	0.918
[4], 4.1 nM	–	1.05
[4], 12.3 nM	–	0.755
[4], 37 nM	–	0.826
[4], 111.1 nM	–	0.837
[4], 333.3 nM	–	0.877
[4], 1000 nM	–	0.767
[4], 3000 nM	–	0.97
[5], 4.1 nM	–	1.05
[5], 12.3 nM	–	0.884
[5], 37 nM	–	1.07
[5], 111.1 nM	–	1.12
[5], 333.3 nM	–	0.965
[5], 1000 nM	–	1.07
[5], 3000 nM	–	0.81
[6], 4.1 nM	–	0.926
[6], 12.3 nM	–	0.974
[6], 37 nM	–	0.909
[6], 111.1 nM	–	0.83
[6], 333.3 nM	–	0.818
[6], 1000 nM	–	0.793
[6], 3000 nM	–	0.656
[7], 4.1 nM	–	0.879
[7], 12.3 nM	–	0.996
[7], 37 nM	–	0.905
[7], 111.1 nM	–	0.858
[7], 333.3 nM	–	1.05
[7], 1000 nM	–	1.04
[7], 3000 nM	–	1.06
[8], 4.1 nM	3.14	–
[8], 12.3 nM	0.603	–
[8], 37 nM	1.05	–
[8], 111.1 nM	4.7	–
[8], 333.3 nM	3.33	–
[8], 1000 nM	1.72	–
[8], 3000 nM	1.27	–
[9], 4.1 nM	0.609	–
[9], 12.3 nM	1.01	–
[9], 37 nM	0.8	–
[9], 111.1 nM	3.3	–
[9], 333.3 nM	0.937	–
[9], 1000 nM	1.35	–
[9], 3000 nM	5.43	–
[10], 4.1 nM	0.79	–
[10], 12.3 nM	0.832	–
[10], 37 nM	0.627	–
[10], 111.1 nM	1.04	–
[10], 333.3 nM	1.13	–
[10], 1000 nM	1.23	–
[10], 3000 nM	0.966	–
[11], 4.1 nM	0.794	–
[11], 12.3 nM	0.613	–
[11], 37 nM	0.892	–
[11], 111.1 nM	0.732	–
[11], 333.3 nM	1.01	–
[11], 1000 nM	0.889	–
[11], 3000 nM	1.3	–
[12], 4.1 nM	0.973	–
[12], 12.3 nM	0.835	–
[12], 37 nM	1.15	–
[12], 111.1 nM	1.03	–
[12], 333.3 nM	1.14	–
[12], 1000 nM	1.16	–
[12], 3000 nM	2.27	–
[13], 4.1 nM	0.927	–
[13], 12.3 nM	1.19	–
[13], 37 nM	1.4	–
[13], 111.1 nM	1.37	–
[13], 333.3 nM	1.71	–
[13], 1000 nM	1.59	–
[13], 3000 nM	1.98	–
[14], 4.1 nM	0.686	–
[14], 12.3 nM	0.611	–
[14], 37 nM	0.986	–
[14], 111.1 nM	0.512	–
[14], 333.3 nM	0.982	–
[14], 1000 nM	0.82	–
[14], 3000 nM	1.29	–
